Measurements published in patent publication US11207299B2, “Biphenyl sulfonamide compounds for the treatment of type IV collagen diseases” (Travere Therapeutics, Inc., priority 2018, dated 2021).
Where “and” joins values, the source holds several entries; their conditions need not be identical. Equal values may be shown once. Entries after “also recorded” stand apart in the source; their conditions may differ.

What was measured:
Type in all cases: in vivo, mouse
[1] = tested on: autosomal Alport mice (COL4A3^−/−); experiment: Pilot study: dose-dependent effects of sparsentan in Alport mice treated from 3-7 weeks of age; conditions: for SBP / UP/C / DBP / Sclerotic Glomeruli (%) / BUN / Fibrosis Score: mean ± SD; for Sclerotic Glomeruli (%): fibronectin staining; for Fibrosis Score: at 7 wk, COL1-positive cortical area scored 0=<5% to 5=75-100%
Description: (§1) Vehicle or sparsentan was given daily by oral gavage to autosomal Alport mice (COL4A3^−/−) on the 129/Sv background (male and female) in five separate studies: a pilot study, an early intervention study (treated from 3-7 weeks of age), a late intervention study (treated from 5-7 weeks of age after the onset of glomerular (GM) changes), a lifespan study, and a hearing study (FIG. 1). The early intervention, late intervention, lifespan, and hearing studies also included mice treated with a comparator, losartan, which was given orally at 3-4 weeks of age in the early intervention study, in drinking water at 4-7 weeks of age in the early intervention study, and in drinking water at 5-7 weeks in the late intervention study.
(§2) Efficacy renal endpoints included blood urea nitrogen (BUN), proteinuria (urine protein to creatinine ratio, or UP/C), glomerulosclerosis, tubulointerstitial fibrosis, leucocyte infiltration, and glomerular basement morphology (GBM) using transmission electron microscopy (TEM). Endpoints in the inner ear included auditory brain stem response (ABR) threshold as a measure of noise-induced hearing loss, strial capillary basement membrane thickness, and inner ear pathology by TEM.
In the pilot study, designed to determine an optimal efficacious dose of sparsentan, Alport mice (3-4 per group) were dosed with vehicle (0.5% methylcellulose 4000 cps/0.25% Tween® 80 in distilled water) or sparsentan at 60 mg/kg or 200 mg/kg from 3 to 7 weeks of age for 28 days. Although 200 mg/kg sparsentan was efficacious in the pilot study, BUN levels were higher than those of Alport mice dosed with 60 mg/kg sparsentan (Table 1; FIG. 2A; FIG. 2B). This observation led to the selection of a 120 mg/kg dose of sparsentan to take forward into the early intervention study. During the pilot study, blood pressure (BP) was measured weekly using the CODA2 tail cuff system. Stria from this pilot study were also examined by immunofluorescence using antibodies to laminin α2
(§3) For the pilot, early intervention, late intervention, and lifespan studies, spot urine was sampled pre-study and weekly during treatment and analyzed for protein (UP) and creatinine (C) to determine proteinuria (UP/C). At the end of each study the animals were euthanized, blood samples were taken, BUN was measured from serum, and kidneys were harvested for structural and immuno-fluorescent measurements. Glomerulosclerosis was assessed by immunofluorescence (IF) using an antibody to fibronectin (FN). Visual counting of the number of sclerotic glomeruli as a proportion of the total number of glomeruli per slide was used to calculate the percentage of sclerotic glomeruli. Sections were co-stained with an anti-CD45 antibody to indicate leucocyte infiltration. Tubulointerstitial fibrosis was determined by IF of kidney sections using an antibody to collagen 1 (COL1). Tubulointerstitial fibrosis (TIF) scoring was conducted by visual assessment of the COL1 positive area as a percentage of the total cortical area and was performed blinded. The fibrosis scoring (“Fibrosis Score”) was categorized according to visual judgment of percentage of total cortical area, as: 0=<5%, 1=5-10%, 2=10-25%, 3=25-50%, 4=50-75%, or 5=75-100%. Ultrastructural changes in GBM and podocyte morphology were observed using transmission electron microscopy (TEM).

[2] = tested on: autosomal Alport mice (COL4A3^−/−); experiment: Hearing study in Alport mice (ABR, noise exposure, strial capillary basement membrane TEM)
Description: as §1, §2
For the hearing study, wild-type or Alport mice were treated according to daily from 3-8.5 weeks of age by oral gavage with vehicle (0.5% methylcellulose 4000 cps/0.25% Tween® 80 in distilled water) or 120 mg/kg sparsentan or losartan at 20 mg/kg by oral gavage from 3-4 weeks of age (during weaning) and 10 mg/kg in drinking water from 4-7 weeks of age (n=5). The progression of Alport disease was assessed at 7 weeks of age by the amount of proteinuria (via urinalysis reagent strips—data not shown). Strial capillary basement membrane (SCBM) width was analyzed by transmission electron microscopy (TEM), and accumulation of extracellular matrix (ECM) in SCBM was determined by immunofluorescence (IF) microscopy using an antibody to laminin α2. Hearing ability and sensitivity to noise were assessed between 7 and 8 weeks of age by Auditory Brainstem Response (ABR), pre-noise exposure. A subset of each treatment group was then exposed to a metabolic noise stress for 10 hours. Mice receiving the noise treatment were randomly selected for overstimulation with a 106 dB sound pressure level (SPL), narrow band noise (8-16 kHz) for 10 hours, usually 10 PM to 8 AM. The noise exposure was conducted in a sound-isolation booth. A speaker was suspended from the ceiling. Wire cages with individual compartments were located midway between the floor and speaker. Mice were hydrated prior to placement in the cage and were provided free access to food. The noise exposure occurred at 8 weeks of age. The amount of hearing loss caused by the metabolic noise exposure was determined 5 days post-exposure.

[3] = tested on: autosomal Alport mice (COL4A3^−/−); experiment: Early intervention study in Alport mice (treated from 3-7 weeks of age)
Description: as §1, §2
In the early intervention study, wild-type and Alport mice were dosed daily by oral gavage with vehicle or sparsentan at 120 mg/kg from 3 to 7 weeks of age (7-8 mice per group), or with losartan at 20 mg/kg by oral gavage from 3-4 weeks of age (during weaning) and 10 mg/kg in drinking water from 4-7 weeks of age.
as §3

[4] = Alport mice, sparsentan 60 mg/kg, at 5 wk of age
[5] = Alport mice, sparsentan 60 mg/kg, at 6 wk of age
[6] = Alport mice, sparsentan 60 mg/kg, at 7 wk of age
[7] = Alport mice, sparsentan 200 mg/kg, at 5 wk of age
[8] = Alport mice, sparsentan 200 mg/kg, at 6 wk of age
[9] = Alport mice, sparsentan 200 mg/kg, at 7 wk of age
[10] = Alport mice, sparsentan 120 mg/kg, at 7 wk of age, mean ± SD

CCCCC1=NC2(CCCC2)C(=O)N1Cc1ccc(-c2ccccc2S(=O)(=O)Nc2noc(C)c2C)c(COCC)c1 [sparsentan]
BUN levels after 200 mg/kg compared to 60 mg/kg sparsentan ([1]; Alport mice, 7 weeks of age, 4 weeks of dosing): elevated
SBP ([1]; Alport mice, sparsentan 60 mg/kg oral daily from 3 wk, at 5 wk of age, n = 4): 114.0 ± 13.0 mmHg
UP/C ([1]; Alport mice, sparsentan 60 mg/kg, at 4 wk of age): 3.4 ± 2.6 mg/mg
DBP [1, 4]: 71.1 ± 10.7 mm/Hg
UP/C [1, 4]: 8.6 ± 2.4 mg/mg
DBP [1, 5]: 72.9 ± 9.6 mm/Hg
SBP [1, 5]: 106.2 ± 6.9 mmHg
UP/C [1, 5]: 1.5 ± 1.5 mg/mg
Sclerotic Glomeruli (%) [1, 6]: 3.5±1.6%
BUN [1, 6]: 17.1 ± 1.5 mg/dL
DBP [1, 6]: 78.1 ± 14.7 mm/Hg
SBP [1, 6]: 117.6 ± 4.6 mmHg
UP/C [1, 6]: 5.6 ± 3.0 mg/mg
Fibrosis Score ([1]; Alport mice, sparsentan 60 mg/kg): 0.0 ± 0.0
SBP ([1]; Alport mice, sparsentan 200 mg/kg oral daily from 3 wk, at 5 wk of age, n = 3): 110.6 ± 21.8 mmHg
UP/C ([1]; Alport mice, sparsentan 200 mg/kg, at 4 wk of age): 2.1 ± 3.7 mg/mg
DBP [1, 7]: 99.7 ± 7.7 mm/Hg
UP/C [1, 7]: 3.9 ± 3.5 mg/mg
DBP [1, 8]: 74.6 ± 21.4 mm/Hg
SBP [1, 8]: 108.7 ± 26.4 mmHg
UP/C [1, 8]: 1.5 ± 2.7 mg/mg
Sclerotic Glomeruli (%) [1, 9]: 1.4±1.3%
BUN [1, 9]: 25.9 ± 7.7 mg/dL
DBP [1, 9]: 91.7 ± 20.0 mm/Hg
SBP [1, 9]: 122 ± 20.9 mmHg
UP/C [1, 9]: 0.8 ± 1.4 mg/mg
Fibrosis Score ([1]; Alport mice, sparsentan 200 mg/kg): 0.0 ± 0.0
Prevention of UP/C, glomerulosclerosis, and fibrosis compared to vehicle-treated mice ([1]; sparsentan 60 and 200 mg/kg, 3-7 weeks of age): prevented an increase in glomerulosclerosis in a dose-dependent manner; also recorded: dose-dependent prevention
Systolic and diastolic blood pressure compared to vehicle-treated Alport mice ([1]; sparsentan 60 or 200 mg/kg, 6 weeks of age (3 weeks of dosing)): significantly lower
COL1 immunoreactivity ([1]; sparsentan-treated Alport mice, pilot study, kidney sections): absent
BP compared to vehicle-treated Alport mice ([1]; sparsentan, end of pilot study (7 weeks of age; 4 weeks of dosing)): no difference
Hearing ability before noise exposure (ABR) ([2]; 7-8-week-old mice, sparsentan 120 mg/kg or losartan 20/10 mg/kg): did not differ significantly
Post-noise hearing loss (ABR threshold post-noise minus pre-noise) vs vehicle-treated Alport mice ([2]; 16 kHz, 5 days after 10 h noise, sparsentan 120 mg/kg, P<0.05): prevented; also recorded: significantly reduced
Increase in strial capillary basement membrane width observed in vehicle-treated Alport mice ([2]; Alport mice treated 3-8.5 weeks of age with sparsentan or losartan): prevented
mean SCBM width±SD ([2]; Alport mice, sparsentan 120 mg/kg from 3-8.5 weeks of age, TEM, n=5): 54.7±2.4 nm
Strial capillary basement membrane thickness, single measurements (FIG. 16) ([2]; capillary from a stria of a sparsentan-treated Alport mouse, TEM): 52.45 nm and 58.09 nm and 80.38 nm
Stria vascularis pathology by TEM ([2]; treated Alport mice, FIGS. 14-23): substantially fewer extra- and intra-cytosolic vacuoles
GBM damage and podocyte effacement (TEM) ([3]; Alport mice, sparsentan 120 mg/kg, early intervention): prevented changes in GBM ultrastructural morphology; also recorded: amelioration
UP/C ([3]; Alport mice, sparsentan 120 mg/kg oral daily from 3 wk, at 4 wk of age, mean ± SD, n = 8): 3.8 ± 1.3 mg/mg
UP/C ([3]; Alport mice, sparsentan 120 mg/kg, at 5 wk of age, mean ± SD): 10.4 ± 2.8 mg/mg
UP/C ([3]; Alport mice, sparsentan 120 mg/kg, at 6 wk of age, mean ± SD): 13.6 ± 3.7 mg/mg
BUN [3, 10]: 17.5 ± 3.3 mg/dL
Sclerotic Glomeruli (%) [3, 10]: 0.8 ± 1.7 %
UP/C [3, 10]: 14.0 ± 3.3 mg/mg
Fibrosis Score ([3]; Alport mice, sparsentan 120 mg/kg, at 7 wk, score 0=<5% to 5=75-100% COL1 area, mean ± SD): 0.0 ± 0.0
Development of nephropathy in Alport mice ([3]; sparsentan 120 mg/kg 28 days or losartan 20 mg/kg 7 days then 10 mg/kg 21 days, from 3 weeks of age): prevented
UP/C, BUN, glomerulosclerosis, and fibrosis vs. vehicle-treated Alport mice ([3]; sparsentan 120 mg/kg or losartan 20/10 mg/kg from 3 weeks of age, P<0.05): significant attenuation
TIF or glomerulosclerosis ([3]; sparsentan- or losartan-treated Alport mice, early intervention): little to no
